Molecular target: MK2 kinase (Homo sapiens, UniProt P49137)
Assay: bMK2 IMAP assay
Settings: not given

Chain of MK2 kinase (P49137 whole entry): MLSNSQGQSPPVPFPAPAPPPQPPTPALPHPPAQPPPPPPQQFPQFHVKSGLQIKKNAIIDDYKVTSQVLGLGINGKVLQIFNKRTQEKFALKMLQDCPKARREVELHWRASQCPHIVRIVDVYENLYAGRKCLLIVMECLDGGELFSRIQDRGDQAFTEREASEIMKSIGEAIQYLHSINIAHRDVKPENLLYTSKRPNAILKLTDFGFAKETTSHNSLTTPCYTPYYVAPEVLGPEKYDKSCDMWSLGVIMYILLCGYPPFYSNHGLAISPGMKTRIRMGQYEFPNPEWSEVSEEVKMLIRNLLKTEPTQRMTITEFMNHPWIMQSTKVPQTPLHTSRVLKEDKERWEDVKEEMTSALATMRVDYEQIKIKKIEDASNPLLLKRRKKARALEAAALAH

`CN1CCN(c2ccc3c(c2)Cc2cc(-c4ccc(Cl)cc4)oc2C(=O)N3Cc2ccccc2-c2cccnc2)CC1` [Compound 6] and `Nc1ccc(-c2ccccc2CN2C(=O)c3oc(-c4ccc(Cl)cc4)cc3Cc3cc(N4CCNCC4)ccc32)cn1` [Compound 11] fall in the same range of IC50: 0.01 to 0.1 µM for the first, 0.01 to 0.1 µM for the second.

Compared with `COCN1C(=O)c2oc(-c3ccc(C#N)cc3)cc2Cc2cc(N3CCNCC3)ccc21` [Compound 13], `N#Cc1ccc(-c2cc3c(s2)C(=O)N(Cc2ccccn2)c2ccc(N4CCNCC4)cc2C3)cc1` [Compound 26] is higher in IC50: 0.001 to 0.01 µM for the first, 1 to 10 µM for the second. The first is the more potent here.

First: O=C1c2oc(-c3ccc(Cl)cc3)cc2Cc2cc(C3CCNCC3)ccc2N1Cc1ccccc1-c1ccccc1 [Compound 16]
Second: O=C1c2oc(-c3ccccc3)cc2Cc2cc(C3CCNCC3)ccc2N1Cc1ccccc1-c1ccccc1 [Compound 20]
The IC50 of the first is lower: 0.1 to 1 µM for the first, 1 to 10 µM for the second.

`COc1ccc(-c2ccccc2CN2C(=O)c3oc(-c4ccc(Cl)cc4)cc3Cc3cc(N4CCNCC4)ccc32)cn1` [Compound 17] and `COc1ncc(-c2ccccc2CN2C(=O)c3oc(-c4ccc(Cl)cc4)cc3Cc3cc(N4CCNCC4)ccc32)cn1` [Compound 22] fall in the same range of IC50: 0.01 to 0.1 µM for the first, 0.01 to 0.1 µM for the second.

First: O=C1Nc2ccc(C3CCNCC3)cc2Cc2cc(-c3ccccc3)oc21 [Compound 18]
Second: O=C1Nc2ccc(N3CCNCC3)cc2Cc2cc(-c3ccc(Cl)cc3)sc21 [Compound 23]
The IC50 of the first is lower: 0.1 to 1 µM for the first, 1 to 10 µM for the second. The first is the more potent here.

First: COc1ccncc1-c1ccccc1CN1C(=O)c2oc(-c3ccc(Cl)cc3)cc2Cc2cc(N3CCNCC3)ccc21 [Compound 21]
Second: O=C1c2sc(-c3ccc(Cl)cc3)cc2Cc2cc(N3CCNCC3)ccc2N1Cc1ccccn1 [Compound 24]
The IC50 of the first is lower: 0.01 to 0.1 µM for the first, 1 to 10 µM for the second.

First: N#Cc1ccc(-c2cc3c(s2)C(=O)Nc2ccc(N4CCNCC4)cc2C3)cc1 [Compound 25]
Second: N#Cc1ccc(-c2cc3c(s2)C(=O)N(Cc2ccccc2-c2cncnc2)c2ccc(N4CCNCC4)cc2C3)cc1 [Compound 27]
The IC50 of the first is higher: 1 to 10 µM for the first, 0.1 to 1 µM for the second.

Same assay, conditions: IC50 Value, IMAP fluorescence polarization; 100 μM ATP, 50 pM MK2, 100 nM TAMRA peptide substrate

With `O=C1c2oc(-c3ccc(Cl)cc3)cc2Cc2cc(N3CCNCC3)ccc2N1Cc1ccccc1-c1cccnc1` [Compound 5] the IC50 was 0.01 to 0.1 µM.

Same assay, conditions: IC50 values, IMAP fluorescence polarization; 100 μM ATP, 50 pM MK2, 100 nM TAMRA peptide substrate

Compound `O=C1c2oc(-c3ccc(Cl)cc3)cc2Cc2cc(N3CCNCC3)ccc2N1Cc1ccccc1-c1cccnc1` [Compound 5] has an IC50 of 0.0383 µM.

— US8598158B2, “Fused tricyclic compounds for the treatment of inflammatory disorders” (Merck Sharp & Dohme Corp., priority 2009, dated 2013)
